# Measured values published in US7879814B2, “Methods and therapeutic compositions in the treatment of advanced cancer” (priority 2003, dated 2011).
# Where two headings read alike, the source gives them in different places.
# Tests used:
# [1] = tested on: stage IIIB/IV non-small cell lung cancer patients; details: cited from earlier work
# [2] = tested on: patients with advanced malignancies (solid tumors); assay: Phase I study of ATP by 8 hour intravenous infusion once weekly, out-patient (DMS #D0005): safety, tolerability, clinical efficacy; format: in vivo, human
# Method: Adenosine 5′-triphosphate (ATP) is provided as a sterile solution in single use vials. […] Storage of the clinical solutions is at controlled refrigerated temperature (2-8° C.). […] The concentration of the final sterile solution is 8 mg/ml and is administered by continuous intravenous infusions using an Ivac or similar infusion device through venous access in a peripheral vein. If venous access is a problem, either a Hickman catheter or its equivalent or an Infusaport or its equivalent, are inserted to provide vascular access. […] All follow-up care is administered in hospital outpatient department or at the patient's home or clinic.
# Title of the Study: “A Phase I Study of the Safety and Pharmacokinetics of Adenosine 5′-Triphosphate (ATP) When Administered by Intravenous Infusion on a Multiple Weekly Dose Schedule to Patients with Advanced Malignancies (Solid Tumors)”.
# Nine qualified patients have been enrolled in the study as of Jan. 1, 2002; seven of which received the first 3 cycles of the study drug and are therefore evaluable for the primary endpoints. Two of the seven evaluable patients had advanced prostate cancer with bone metastases and one each had advanced mesothelioma, metastatic breast cancer, metastatic melanoma, metastatic colon cancer and renal cell carcinoma.
# [3] = tested on: men with advanced, non-resectable cancer; details: cited from earlier work
# [4] = tested on: refractory stage IIIB/IV non-small cell lung cancer patients; details: cited from earlier work
# [5] = Pharmacokinetics of ATP on weeks (cycles) 1, 3 and 8 of the Phase I study; format: in vivo, human
# Source text: Two of the seven evaluable patients had advanced prostate cancer with bone metastases and one each had advanced mesothelioma, metastatic breast cancer, metastatic melanoma, metastatic colon cancer and renal cell carcinoma.
# [6] = cited from earlier work; for whole blood ATP concentration higher than pretreatment value (average): 24 hours of infusion
# [7] = 50 or 65 mcg/kg/min, 96 hours once every 4 weeks, 15 patients
# [8] = 50 or 65 mcg/kg/min, 96 hours once every 4 weeks
# [9] = week 1 pre-dose to week 13 follow-up
# [10] = 50, 75 or 100 mcg/kg/min, 96 hr infusion once every 4 weeks
# [11] = 30-hours infusions, 20 up to 75 mcg/kg/min
smiles,measurement,setting,value
"Nc1ncnc2c1ncn2[C@@H]1O[C@H](COP(=O)(O)OP(=O)(O)OP(=O)(O)O)[C@@H](O)[C@H]1O [ATP, Adenosine 5′-triphosphate]",patients reporting severe (grade 3) adverse effects,[1]; [7],Six
same,patients with life-threatening (grade 4) dyspnea,[1]; [7],two
same,disease status after treatment,[1]; [8],the majority of patients exhibited stable disease
same,"hematologic, renal, hepatic, or gastrointestinal toxicity",[1]; [8],No significant
same,tumor shrinking,[1]; [8],no significant tumor shrinking was observed
same,"effects on weight gain, performance status and overall survival",[1]; non-small cell lung cancer patients,beneficial effects
same,grade 2 cardiac ischemia or grades 3 or 4 toxicity,"[2]; 8 hour iv infusion once weekly, up to 100 mcg/kg/min",No grade 2 cardiac ischemia or grades 3 or 4 toxicity have been observed
same,appetite loss,"[2]; all patients, screening to week 10 (follow-up), return to screening baseline at week 13",Decreases
same,"SGOT, SGPT and serum LDH","[2]; all patients, week 1 (pre-dose) to week 13 (follow-up)",Consistent decreases
same,maximum allowable dose tolerated,"[2]; continuous 8 hours iv infusion once weekly for eight weeks, seven of nine patients (the seven evaluable)",100 µg/kg/min
same,appetite and energy (subjective patient comments),"[2]; during the study, several patients",improved appetite and energy
same,tolerability in terminal patients,[2]; patient 506,well tolerated
same,Global Health Status of the QOL EORTC QLQ-C30,"[2]; screening (week <1) to follow-up (week 10), decline at week 13 follow-up",Increases
same,Skeletal Muscle Strength (voluntary),[2]; screening (week <1) to week 8 (last infusion cycle),Small increases
same,Kamofsky Performance Status,[2]; [9],Small increases
same,body weight,[2]; [9],Stabilization
same,share of all adverse events that were grade 1 or 2 (mild or moderate),[3]; [10],79%
same,share of all adverse events that were grade 3 or 4 (severe or life-threatening),[3]; [10],21%
same,maximum tolerated dose,"[3]; 96-hours infusions, patients with advanced cancers",50 µg/kg/min
same,events of grade 3 anxiety,[3]; 96 hr infusions,one
same,events of grade 3 headache,[3]; 96 hr infusions,1 event
same,grade 3 or 4 events of chest pain,[3]; 96 hr infusions,5 events
same,grade 3 or 4 events of dizziness,[3]; 96 hr infusions,1 event
same,grade 3 or 4 events of dyspnea,[3]; 96 hr infusions,6 events
same,grade 3 or 4 events of hypotension,[3]; 96 hr infusions,1 event
same,grade 3 or 4 events of hypoxia,[3]; 96 hr infusions,2 events
same,grade 3 or 4 events of nausia/emesis,[3]; 96 hr infusions,2 events
same,adverse events of grade 1 (mild),[4]; [11],81
same,adverse events of grade 2 (moderate),[4]; [11],5
same,adverse events of grade 3 (severe),[4]; [11],none
same,adverse events of grade 4 (life threatening),[4]; [11],5
same,electrocardiograms in patients with chest discomfort,[4]; 30-hours infusions,did not exhibit changes suggestive of myocardial ischemia
same,"effects on body weight, voluntary muscle strength and Quality of Life domains",[4]; ATP plus best supportive care vs best supportive care only,beneficial effects
same,resolution of side effects,[4]; after lowering the rate of ATP infusion,resolved within minutes
same,total blood ATP pools after infusion,[5]; at 24 hours,decline to baseline (time 0)
same,average increases in Initial ATP Release Rates (from Red Blood Cells),[5]; time 0 to 8 hours,200-400%
same,increases in total blood ATP pools (red blood cell pools),[5]; time 0 to 8 hours (end of the infusions),70-90%
same,whole blood ATP concentration higher than pretreatment value (average),[6]; 50 mcg/kg/min,63%
same,whole blood ATP concentration higher than pretreatment value (average),[6]; 75 mcg/kg/min,67%
same,whole blood ATP concentration higher than pretreatment value (average),[6]; 100 mcg/kg/min,113%
same,course of blood ATP concentrations,[6]; interval between 24 and 96 hours of the infusion,relatively constant or slightly declined
